Assay results as given in ChEMBL document CHEMBL2157925, “Design, synthesis, and bioevaluation of benzamides: novel acetylcholinesterase inhibitors with multi-functions on butylcholinesterase, Aβ aggregation, and β-secretase” (Bioorg Med Chem, 2012).

Legend:
[1] = target: Acetylcholinesterase (Homo sapiens, UniProt P22303)
Description: Inhibition of human recombinant AChE using acetylthiocholine as substrate

[2] = target: Cholinesterase (Homo sapiens, UniProt P06276)
Description: Inhibition of human recombinant BChE using acetylthiocholine as substrate

[3] = target: Beta-secretase 1 (Homo sapiens, UniProt P56817)
Chain of Beta-secretase 1 (P56817 whole entry): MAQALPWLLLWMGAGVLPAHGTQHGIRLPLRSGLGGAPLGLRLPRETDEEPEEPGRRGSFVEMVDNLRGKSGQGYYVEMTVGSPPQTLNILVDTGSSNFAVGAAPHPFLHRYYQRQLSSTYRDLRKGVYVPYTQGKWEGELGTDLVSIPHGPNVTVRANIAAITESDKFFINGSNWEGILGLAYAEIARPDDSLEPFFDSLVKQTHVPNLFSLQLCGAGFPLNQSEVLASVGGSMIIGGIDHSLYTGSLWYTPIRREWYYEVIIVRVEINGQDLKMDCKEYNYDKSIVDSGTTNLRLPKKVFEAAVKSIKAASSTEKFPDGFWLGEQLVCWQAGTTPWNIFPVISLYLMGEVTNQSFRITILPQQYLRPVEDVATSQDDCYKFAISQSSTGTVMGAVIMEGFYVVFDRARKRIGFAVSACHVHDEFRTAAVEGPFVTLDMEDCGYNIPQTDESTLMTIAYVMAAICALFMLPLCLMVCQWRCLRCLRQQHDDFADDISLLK

Chain of Acetylcholinesterase (P22303 whole entry): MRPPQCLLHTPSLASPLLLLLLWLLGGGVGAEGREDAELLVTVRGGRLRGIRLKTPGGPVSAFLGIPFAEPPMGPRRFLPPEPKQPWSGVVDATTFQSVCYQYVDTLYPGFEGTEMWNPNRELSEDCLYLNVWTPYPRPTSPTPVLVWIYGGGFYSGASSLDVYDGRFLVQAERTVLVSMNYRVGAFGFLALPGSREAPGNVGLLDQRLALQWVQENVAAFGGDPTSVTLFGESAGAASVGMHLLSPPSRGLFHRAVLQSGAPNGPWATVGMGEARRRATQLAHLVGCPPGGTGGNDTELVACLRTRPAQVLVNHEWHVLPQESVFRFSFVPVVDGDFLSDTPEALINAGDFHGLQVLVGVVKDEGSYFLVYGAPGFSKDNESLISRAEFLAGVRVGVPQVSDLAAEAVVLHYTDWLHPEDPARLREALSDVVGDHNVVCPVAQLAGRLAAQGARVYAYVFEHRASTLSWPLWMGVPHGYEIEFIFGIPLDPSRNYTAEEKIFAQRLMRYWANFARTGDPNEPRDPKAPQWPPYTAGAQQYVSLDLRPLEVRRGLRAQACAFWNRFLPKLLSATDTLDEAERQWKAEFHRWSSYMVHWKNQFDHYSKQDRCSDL
Chain of Cholinesterase (P06276 whole entry): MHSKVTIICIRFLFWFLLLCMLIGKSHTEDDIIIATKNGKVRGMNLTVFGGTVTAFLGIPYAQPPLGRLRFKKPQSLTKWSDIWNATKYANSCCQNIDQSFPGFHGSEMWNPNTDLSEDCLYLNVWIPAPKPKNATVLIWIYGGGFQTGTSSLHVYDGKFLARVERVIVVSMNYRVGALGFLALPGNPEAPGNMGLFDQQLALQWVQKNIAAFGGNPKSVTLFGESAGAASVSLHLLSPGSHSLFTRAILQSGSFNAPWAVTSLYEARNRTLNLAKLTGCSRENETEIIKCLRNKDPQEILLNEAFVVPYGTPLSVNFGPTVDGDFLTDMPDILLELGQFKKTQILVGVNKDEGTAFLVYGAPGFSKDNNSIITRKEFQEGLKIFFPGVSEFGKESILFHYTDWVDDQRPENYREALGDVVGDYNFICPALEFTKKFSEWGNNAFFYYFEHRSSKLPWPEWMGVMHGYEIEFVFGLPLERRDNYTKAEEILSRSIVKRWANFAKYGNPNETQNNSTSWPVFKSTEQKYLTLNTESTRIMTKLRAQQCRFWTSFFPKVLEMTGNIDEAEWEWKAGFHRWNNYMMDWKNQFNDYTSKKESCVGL

## CC(=O)c1ccccc1NC(=O)c1ccc(OCCCCCC[n+]2ccccc2)cc1
[1]
  Ki: 47 nM
[2]
  Ki: 66 nM

## O=C(NCCc1c[nH]c2ccccc12)c1ccc(OCCCCOc2cccc(C(=O)c3ccccc3)c2)cc1
[1]
  Ki: > 10000 nM

## O=C(NCCc1c[nH]c2ccccc12)c1ccc(OCCCCOc2ccc3c(c2)C(=O)c2ccccc2-3)cc1
[1]
  Ki: > 10000 nM

## CC(=O)c1ccccc1NC(=O)c1ccc(OCCCCC[n+]2ccc3ccccc3c2)cc1
[1]
  Ki: 44.7 nM
[2]
  Ki: 82 nM
[3]
  IC50: > 100000 nM

## CC(=O)c1ccccc1NC(=O)c1ccc(OCCCCCC[n+]2ccc3ccccc3c2)cc1
[1]
  Ki: 9.4 nM
[2]
  Ki: 99 nM
[3]
  IC50: > 100000 nM

## CC(=O)c1ccccc1NC(=O)c1ccc(OCCCC[n+]2ccc3ccccc3c2)cc1
[1]
  Ki: 45.8 nM
[2]
  Ki: 56 nM

## O=C(NCCc1c[nH]c2ccccc12)c1ccc(OCCCCOc2cccc3[nH]c4ccccc4c23)cc1
[1]
  Ki: > 10000 nM

## O=C(NCCc1c[nH]c2ccccc12)c1ccc(OCCCCOc2ccc(C(=O)c3ccccc3)cc2)cc1
[1]
  Ki: > 10000 nM

## CC(=O)c1ccccc1NC(=O)c1ccc(OCCCC[n+]2cccc3ccccc32)cc1
[1]
  Ki: 53 nM
[2]
  Ki: 166 nM

## CC(=O)c1ccccc1NC(=O)c1ccc(OCCCCC[n+]2ccccc2)cc1
[1]
  Ki: 81 nM
[2]
  Ki: 93 nM
[3]
  IC50: 310 nM

## O=C(NCCc1c[nH]c2ccccc12)c1ccc(OCCCCn2ccc3ccccc32)cc1
[1]
  Ki: > 10000 nM

## CC(=O)c1ccccc1NC(=O)c1ccc(OCCCCC[n+]2cccc3ccccc32)cc1
[1]
  Ki: 6.47 nM
[2]
  Ki: 55 nM
[3]
  IC50: 85000 nM

## O=C(NCCc1c[nH]c2ccccc12)c1ccc(OCCCCn2c3ccccc3c3ccccc32)cc1
[1]
  Ki: 1440 nM

## CN(C)c1cc[n+](CCCCOc2ccc(C(=O)NCCc3c[nH]c4ccccc34)cc2)cc1
[1]
  Ki: 198 nM
[2]
  Ki: 2360 nM

## O=C(NCCc1c[nH]c2ccccc12)c1ccc(OCCCC[n+]2cccc3ccccc32)cc1
[1]
  Ki: 124 nM
[2]
  Ki: 97 nM
